O=C(O)c1ccc(C(=O)O)o1
solubility (mole fraction)
Conditions	in MIBK	in acetic acid	in acetonitrile	in isobutanol	in methanol	in methyl acetate	in n-butanol	in water
313.15 K	0.000136	0.000235	6.11e-05	0.00168	0.00428	7.78e-05	0.00266	0.000203
318.15 K	0.000184	0.000272	9.15e-05	0.00198	0.00489	0.000113	0.00302	0.000225
323.15 K	0.000253	0.000331	0.000112	0.0023	0.0054	0.000164	0.00346	0.000283
328.15 K	0.000296	0.000404	0.000136	0.0027	0.0068	0.000238	0.00408	0.00037
333.15 K	0.000338	0.000478	0.000166	0.00323	0.00801	0.000285	0.00469	0.000421
338.15 K	0.000429	0.000555	0.000212	0.00372	0.00869	0.000377	0.00524	0.000465
343.15 K	0.000536	0.000717	0.000248	0.00412	0.00894	0.000464	0.00572	0.000598
348.15 K	0.000631	0.00082	0.000278	0.00482	–	0.000549	0.00663	0.000641
353.15 K	0.000666	0.000965	0.000341	0.00548	–	0.00062	0.00741	0.000781
358.15 K	0.000721	0.00115	0.000409	0.00607	–	0.000659	0.0082	0.000908
363.15 K	0.000863	0.00134	0.000487	0.00682	–	0.000721	0.00916	0.0011
